Columns and labels:
Assay in all cases: relative viability (nuclei count vs DMSO), 5 days (fraction); higher = more cells survive
Apatinib + Luminespib = compound: N#CC1(c2ccc(NC(=O)c3cccnc3NCc3ccncc3)cc2)CCCC1 [Apatinib] + CCNC(=O)c1noc(-c2cc(C(C)C)c(O)cc2O)c1-c1ccc(CN2CCOCC2)cc1 [Luminespib] (partner 0.01 µM)
In short: (§1)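 Relative viability equals treated-well nuclei counts divided by vehicle-well nuclei counts. Counts came from 4× images of lung cancer cell lines grown in 1536-well plates for 5 days after pin-tool dosing on the day after seeding. Dosing used one drug alone or a fixed anchor-drug dose plus five library-drug doses (not always all listed) in √10 steps, and values are medians of duplicate plates.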

Apatinib + Lapatinib = compound: N#CC1(c2ccc(NC(=O)c3cccnc3NCc3ccncc3)cc2)CCCC1 [Apatinib] + CS(=O)(=O)CCNCc1ccc(-c2ccc3ncnc(Nc4ccc(OCc5cccc(F)c5)c(Cl)c4)c3c2)o1 [Lapatinib] (partner 2 µM)
In short: as §1

Apatinib + AZD7762 = compound: N#CC1(c2ccc(NC(=O)c3cccnc3NCc3ccncc3)cc2)CCCC1 [Apatinib] + NC(=O)Nc1cc(-c2cccc(F)c2)sc1C(=O)N[C@H]1CCCNC1 [AZD7762] (partner 0.2 µM)
In short: as §1

Metformin + OSI-027 = compound: CN(C)C(=N)NC(=N)N [Metformin] + COc1cccc2cc(-c3nc([C@H]4CC[C@H](C(=O)O)CC4)n4ncnc(N)c34)[nH]c12 [OSI-027] (partner 0.5 µM)
In short: as §1

Cell Line	relative viability (Apatinib + Luminespib; first compound 0.08 µM)	relative viability (Apatinib + Luminespib; first compound 0.253 µM)	relative viability (Apatinib + Luminespib; first compound 0.8 µM)	relative viability (Apatinib + Luminespib; first compound 2.53 µM)	relative viability (Apatinib + Luminespib; first compound 8 µM)	relative viability (Apatinib + Lapatinib; first compound 0.08 µM)	relative viability (Apatinib + Lapatinib; first compound 0.253 µM)	relative viability (Apatinib + Lapatinib; first compound 0.8 µM)	relative viability (Apatinib + Lapatinib; first compound 2.53 µM)	relative viability (Apatinib + Lapatinib; first compound 8 µM)	relative viability (Apatinib + AZD7762; first compound 0.08 µM)	relative viability (Apatinib + AZD7762; first compound 0.253 µM)	relative viability (Apatinib + AZD7762; first compound 0.8 µM)	relative viability (Apatinib + AZD7762; first compound 2.53 µM)	relative viability (Apatinib + AZD7762; first compound 8 µM)	relative viability (Metformin + OSI-027; first compound 31.62 µM)	relative viability (Metformin + OSI-027; first compound 100 µM)	relative viability (Metformin + OSI-027; first compound 316.23 µM)	relative viability (Metformin + OSI-027; first compound 1000 µM)	relative viability (Metformin + OSI-027; first compound 10 µM)
LC-2-ad	1.08	1.16	1.01	1.01	0.917	0.925	0.998	0.947	0.9	0.71	0.86	0.892	0.779	0.825	0.799	0.69	0.693	0.531	0.588	
LCLC-97TM1	0.761	0.833	0.863	0.605	0.297	0.845	0.818	0.586	0.604	0.475	0.233	0.263	0.204	0.19	0.311	0.58	0.537	0.487	0.711	0.647
LK-2	0.185	0.178	0.187	0.209	0.188	0.7	0.827	0.878	0.782	0.73	0.262	0.468	0.302	0.155	0.248	0.169	0.199	0.195	0.209	0.194
LOU-NH91	0.354	0.363	0.386	0.356	0.354	0.727	0.726	0.754	0.712	0.77	0.749	0.724	0.75	0.677	0.701	0.71	0.644	0.775	0.767	0.711
LU99A	0.294	0.302	0.221	0.241	0.213	1.02	1.07	0.969	0.821	0.954	0.413	0.448	0.269	0.224	0.229	0.321	0.3	0.309	0.289	0.302
LXF-289	0.644	0.857	0.633	0.652	0.743	0.935	0.894	0.888	0.838	0.875	1.13	1.1	1.09	1.02	1.02	0.737	0.738	0.721	0.735	0.764
NCI-H23	0.23	0.22	0.211	0.2	0.213	1.54	1.2	0.959	1.04	0.905	0.275	0.193	0.21	0.134	0.108	0.665	0.559	0.523	0.664	0.594
NCI-H322M	0.871	0.845	0.9	1.01	1.07	0.571	0.465	0.57	0.64	0.584	0.553	0.58	0.549	0.471	0.471	0.597	0.604	0.457	0.46	0.54
NCI-H358	0.246	0.368	0.684	0.382	0.236	0.47	0.397	0.474	0.439	0.403	0.548	0.573	0.475	0.45	0.343	0.879	0.801	0.716	0.749	0.737
NCI-H460	0.0389	0.0355	0.0311	0.0328	0.0337	0.915	0.93	0.796	0.905	0.777	0.538	0.581	0.417	0.269	0.394	0.664	0.547	0.49	0.762	0.685
NCI-H596	1.09	1.2	0.926	0.97	0.903	1.16	1.1	1.02	0.976	1.18	1.09	1.04	0.863	0.944	0.901	0.84	0.85	0.636	0.988	1.04
NCI-H647	0.235	0.144	0.267	0.136	0.23	1.35	1.13	0.925	1.02	0.858		0.482	0.372	0.341	0.344	0.853	0.538	0.485	0.924	0.721
NCI-H650	0.774	0.831	0.872	0.645	0.524	0.799	0.982	0.784	0.74	0.583	0.906	1.05	1.12	0.743	0.694	0.549	0.535	0.584	0.607	0.517
NCI-H727	0.307	0.31	0.393	0.387	0.233	0.707	0.879	0.9	0.727	0.825	0.487		0.548	0.456	0.49	0.726	0.736	0.545	0.48	0.543
NCI-H838	0.332	0.286	0.388	0.282	0.249	1.29	1.13	0.998	0.965	0.891	0.979	0.957	0.941	0.885	0.865	0.624	0.563	0.508	0.515	0.544
NCI-H1355	0.672	0.809	0.761	0.647	0.563	1.06	0.963	0.973	0.923	0.944	0.699	0.812	0.593	0.447	0.457	0.373	0.396	0.416	0.406	0.434

Cell Line	relative viability (Apatinib + Luminespib; first compound 0.08 µM)	relative viability (Apatinib + Luminespib; first compound 0.253 µM)	relative viability (Apatinib + Luminespib; first compound 0.8 µM)	relative viability (Apatinib + Luminespib; first compound 2.53 µM)	relative viability (Apatinib + Luminespib; first compound 8 µM)	relative viability (Apatinib + Lapatinib; first compound 0.08 µM)	relative viability (Apatinib + Lapatinib; first compound 0.253 µM)	relative viability (Apatinib + Lapatinib; first compound 0.8 µM)	relative viability (Apatinib + Lapatinib; first compound 2.53 µM)	relative viability (Apatinib + Lapatinib; first compound 8 µM)	relative viability (Apatinib + AZD7762; first compound 0.08 µM)	relative viability (Apatinib + AZD7762; first compound 0.253 µM)	relative viability (Apatinib + AZD7762; first compound 0.8 µM)	relative viability (Apatinib + AZD7762; first compound 2.53 µM)	relative viability (Apatinib + AZD7762; first compound 8 µM)	relative viability (Metformin + OSI-027; first compound 31.62 µM)	relative viability (Metformin + OSI-027; first compound 100 µM)	relative viability (Metformin + OSI-027; first compound 316.23 µM)	relative viability (Metformin + OSI-027; first compound 1000 µM)	relative viability (Metformin + OSI-027; first compound 10 µM)
NCI-H1395	0.713	0.686	0.784	0.604	0.527	0.848	1.31	1.17	0.855	0.901	0.438	0.425	0.407	0.361	0.373	0.899	0.669	0.693	0.75	0.74
NCI-H1437	1.11	1.12	1.11	0.923	0.817	0.761	0.841	0.745	0.624	0.537	1.07	1.12	1.02	1.04	0.812	1.23	1.06	1	1.04	1.21
NCI-H1651	0.981	1.12	0.855	0.579	0.652	0.914	0.909	0.709	0.698	0.76	0.325	0.514	0.44	0.322	0.324	1.02	1.03	0.954	1.1	0.904
NCI-H1666	0.948	1.07	1.04	0.983	1.05	0.631	0.726	0.736	0.759	0.682	0.828	0.871	0.776	0.769	0.746	0.974	1.05	0.99	0.939	0.97
NCI-H1734	0.19	0.187	0.275	0.165	0.193	1.14	1.13	1.06	0.871	0.909	0.597	0.594	0.548	0.439	0.389	0.581	0.537	0.544	0.618	0.653
NCI-H1755	0.295	0.695	0.524	0.491	0.479	1.03	1	1.04	1.08	0.722	0.442	0.449	0.366	0.375	0.335	0.729	0.701	0.636	0.579	0.614
NCI-H1792	0.495	0.521	0.43	0.308	0.274	0.873	0.877	0.855	0.798	0.844	0.881	0.68	0.528	0.508	0.211	0.91	0.909	0.697	0.678	
NCI-H1793	0.185	0.183	0.157	0.172	0.193	0.553	0.616	0.736	0.544	0.604	0.669	0.41	0.257	0.209	0.116		0.315	0.238	0.253	0.395
NCI-H1915	0.891	0.852	0.737	0.692	0.544	1.04	0.94	0.892	0.802	0.935	0.733	0.685	0.648	0.567	0.505	0.666	0.651	0.56	0.665	
NCI-H1944	0.701	0.773	0.667	0.644	0.494	0.832	0.863	0.736	0.745	0.739	0.498	0.564	0.477	0.316	0.285	0.401	0.402	0.425	0.455	0.428
NCI-H1975	0.167	0.195	0.229	0.176	0.262	0.929	1.15	0.835	0.738	0.904		0.754	0.71	0.514	0.655	1.08	0.748	0.891	0.949	0.96
NCI-H1993	0.885	0.906	0.886	0.757	0.673	0.824	0.749	0.805	0.866	0.798	0.869	0.7	0.648	0.576	0.638	0.603	0.554	0.507	0.514	0.587
NCI-H2085	0.396	0.527	0.429	0.421	0.361	0.726	0.683	0.873	0.619	0.768	0.97	1	0.925	0.846	0.699	0.54	0.721	0.718	0.703	0.649
NCI-H2087	0.186	0.183	0.185	0.135	0.149	0.877	0.982	1.09	0.793	0.891	1.25	1.25	1.32	1.05	1.05	0.753	0.73	0.536	0.482	
NCI-H2126	0.963	0.774	0.985	0.826	0.832	0.757	0.768	0.762	0.711	0.78	1.02	0.924	0.9	0.973	0.933	0.725	0.8	0.787	0.656	0.682
NCI-H2170	0.841	0.649	0.609	0.676	0.621	0.307	0.241	0.466	0.271	0.281	0.871	0.901	0.719	0.721	0.706	0.52	0.683	0.673	0.711	0.566
